Assay results reported in patent US9649324B2, “Use of tylvalosin as antiviral agent” (ECO ANIMAL HEALTH LIMITED, priority 2006, dated 2017).

Legend:
[1] = cited from earlier work
[2] = test system: VR2332 (US strain of PRRSV); assay: VR2332 (US strain of PRRSV) entry assay in MA104 cells (Example 10); conditions: 4 h pretreatment, moi 10, overnight
[3] = orally administered, in vivo (Okamoto et al., 1981); cited from earlier work
[4] = test system: chicken white blood cells; assay: Intracellular accumulation in chicken white blood cells; assay type: in vitro ADME; conditions: chicken white blood cells
Method: Pig blood was collected in Heparin-coated BD vacutainers (6). 20 mL of blood and 30 mL of phosphate buffered saline (PBS) were mixed in a 50 mL conical centrifuge tube. This was repeated in order to obtain 3 such tubes. The mixtures were centrifuged for 10 min at 2050×g. The white blood cells, together with some red blood cells below, were harvested into a 50 mL conical centrifuge tube. PBS was added to about 50 mL. A 63% solution of Percoll was made as follows: 6.3 mL Percoll (Sigma), 1.0 mL 1.5 M NaCl, 2.7 mL H2O. 10 mL of 63% Percoll was added to each of two 50 mL conical centrifuge tubes. 25 mL of the resuspended white blood cells were carefully layered on top of the each of the Percoll solutions. A sharp interface was produced. The material was centrifuged at 3000×g for 10 min. […] The white blood cells were harvested in PBS (50 mL) and centrifuged at 500×g for 10 min. The cell pellet was resuspended in medium (Glasgow minimum essential medium containing penicillin and streptomycin). A viable cell count was made using trypan blue. The same method used for isolation of pig WBCs was used for the chicken WBCs, with the exception that heparin (100 I.U./mL) was prepared and mixed with an equal volume of chicken whole blood.
All tubes were placed on a rotary mixing machine, at 37° C. Supernatant and cell samples were harvested at the times described in the figure legends. Duplicate samples were used for each antibiotic for each time point.
(§1) All the supernatant and cell samples were transported frozen (at approximately −20° C.) to York Bioanalytical Solutions (York, England) for analysis. Briefly, 0.25 g of buffer (RPMI medium containing 10% FCS) was weighed into a polypropylene tube. A 50 μL volume of the appropriate working solution was added to the quality control (QC) samples. Methanol (50 μL) was added to each blank sample used for preparation of calibration standards, recovery samples and reagent blanks. A 2.5 mL volume of 0.1 M phosphate buffer was added to each sample, vortex mixed for approximately 1 min and then centrifuged at 3220×g for 10 min at 4° C.
(§2) For the liquid-liquid clean-up phase, an aliquot (100 μL) of the supernatant was transferred to a polypropylene tube. The pH was adjusted to pH 8-8.5 by the addition of 0.1 M NaOH, and vortex mixed. Ethyl acetate (5 mL) was added and after capping, the whole mixture was shaken for 10 min and then centrifuged at 3220×g for 10 min at 4° C.
(§3) Ammonium acetate (20 mM; pH native)—formic acid, 1000:3, v/v (100 μL) was added to each well in a 2 mL polypropylene collection plate. An aliquot of the ethyl acetate mixture (100 μL) was transferred to the polypropylene collection plate and evaporated under nitrogen (40° C.) until the ethyl acetate was fully evaporated whilst the ammonium acetate remained. Methanol (100 μL) was added to each well, excluding the calibration standards.
(§4) To each well containing a calibration standard, 100 μL of the appropriate calibration working solution was added. Samples were then vortex mixed for at least 10 min and submitted for liquid chromatography with tandem mass spectrometric analysis. The method stated was applicable to the samples of media (and the calibration standards and quality control samples).
For the cells, the sample tubes were weighed, and 100 μL of acetonitrile was added. The samples were vortex mixed for 10 sec, then centrifuged at 10285×g at 4° C. for 5 min. The sample was transferred to a polypropylene tube. The original sample tube was washed with 0.1 M phosphate buffer (1 mL). This was transferred to the polypropylene tube. A second wash of 1 mL was made, then a final wash of 0.5 mL. The polypropylene tube was now at the same stage as the end of the liquid extraction, but with the cells present rather than media. This was then taken through the sample preparation as described above. […]

PRRSV = assay: Inhibitors of PRRSV infection added at various times pre and post infection (Example 7); assay type: cell-based
Caco-2 cells = assay: Intracellular accumulation and trans-epithelial transport in polarised Caco-2 cells; assay type: in vitro ADME, human
Method: Caco-2 cells were seeded at a density of 0.8×10^6 cells per well of a Transwell Clear filter 6 well plate, 0.4 μm pore size. The cells were incubated with 2 mL medium in both apical and basolateral chambers. This medium was replaced every 2 days for 10-14 days. Transepithelial resistance was measured using Millicell ERS apparatus (Millipore) at day 7, 10 and/or 14 in order to identify when the cells had become polarised. Readings of >1000 Ω were indicative of polarised cells. […]
as §1, §2, §3, §4
For the cells, the sample tubes were weighed, and 100 μL of acetonitrile was added. The samples were vortex mixed for 10 sec, then centrifuged at 10285×g at 4° C. for 5 min. The sample was transferred to a polypropylene tube. The original sample tube was washed with 0.1 M phosphate buffer (1 mL). This was transferred to the polypropylene tube. A second wash of 1 mL was made, then a final wash of 0.5 mL. The polypropylene tube was now at the same stage as the end of the liquid extraction, but with the cells present rather than media. This was then taken through the sample preparation as described above. The original sample tubes were allowed to dry (i.e. any remaining solvent evaporated off) and were then reweighed to determine the weight of cells in the sample, to allow the concentration per gram of cells to be determined.

[5] = test system: human Udorn strain of influenza; assay: Influenza infection of MDCK cells, immunofluorescence (Example 4), strain Udorn; assay type: cell-based; conditions: 1 μg/ml, 4 h pretreatment, moi 10, fixed 4 h post infection
[6] = test system: equine arteritis virus (EAV); assay: Effect on equine arteritis virus infection (Example 6); assay type: cell-based
Method: Experiments were carried out to determine whether tylvalosin has an effect on equine arteritis virus (EAV).

[7] = test system: equine influenza strain Miami; assay type: cell-based; conditions: 1 μg/ml, 4 h pretreatment, moi 10, fixed 4 h post infection
[8] = added 2 or 4 hours after infection
[9] = Caco-2, 10 μg/mL, apical administration, 240 min
[10] = Caco-2, 100 μg/mL, apical administration, 30 min
[11] = Caco-2, 100 μg/mL, apical administration, 240 min
[12] = Caco-2, 100 μg/mL, apical administration, between 60 min and 120 min
[13] = Caco-2, 100 μg/mL, basolateral administration, 30 min
[14] = Caco-2, 100 μg/mL, basolateral administration, 240 min

CCC1OC(=O)CC(OC(C)=O)C(C)C(OC2OC(C)C(OC3CC(C)(O)C(OC(=O)CC(C)C)C(C)O3)C(N(C)C)C2O)C(CC=O)CC(C)C(=O)C=CC(C)=CC1COC1OC(C)C(O)C(OC)C1OC (stereo not drawn) [tylvalosin, 3-O acetyl-4″-O-isovaleryltylosin]
pKa [1]: 7.6
inhibition of VR2332 infection [2]: sensitive
blood levels [3]: higher blood levels than tylosin
average intracellular concentration ([4]; 10 μg/mL, 15 min): 89.8 μg/mg cells
intracellular concentration ([4]; 10 μg/mL, 60 min): 122.9 μg/mg cells
intracellular:extracellular ratio ([4]; 60 min): 19 fold
PRRSV spread (PRRSV; [8]): inhibited
initial PRRSV infection (initial site of infection) (PRRSV; [8]): inhibited
initial PRRSV infection (PRRSV; added 4 hours before infection): inhibited
initial PRRSV infection (PRRSV; added at the time of infection): inhibited
average intracellular concentration (Caco-2 cells; Caco-2, 10 μg/mL, apical administration, 120 min): 42.2 μg/mg cells
average intracellular concentration (Caco-2 cells; [9]): 34.3 μg/mg cells
basolateral chamber content as average % of the apical chamber value (Caco-2 cells; [9]): 10.47%
intracellular:extracellular ratio (fold concentration) (Caco-2 cells; [9]): 3.49 fold
average intracellular concentration (Caco-2 cells; [10]): 428 μg/mg cells
intracellular:extracellular ratio (Caco-2 cells; [10]): 4.64
intracellular concentration (Caco-2 cells; [11]): 375 μg/mg cells
intracellular:extracellular ratio (Caco-2 cells; [11]): 5.85
tylvalosin in opposite (basolateral) chamber compared to the administration chamber (Caco-2 cells; [11]): 19%
intracellular:extracellular ratio (peak, average value) (Caco-2 cells; [12]): 10.23-15.58
maximum intracellular concentration (Caco-2 cells; [12]): 559.5-620 μg/mg cells
average intracellular concentration (Caco-2 cells; [13]): 493 μg/mg cells
intracellular:extracellular ratio (Caco-2 cells; [13]): 7
intracellular concentration (Caco-2 cells; [14]): 155.5 μg/mg cells
intracellular:extracellular ratio (Caco-2 cells; [14]): 3.57
tylvalosin in opposite (apical) chamber compared to the administration chamber (Caco-2 cells; [14]): 22.05%
total amount of tylvalosin transported across the cells (Caco-2 cells; Caco-2, after 4 h (discussion)): about 20%
inhibition of infection of MDCK cells [5]: 76%
EAV infection [6]: not blocked
inhibition of infection of MDCK cells [7]: 92%
